In patent US20080235828A1 (University of Manitoba, priority 2004, published 2008):

Legend:
FCA-RRM = test: Preliminary ABA-binding assays using crude lysate from FCA-RRM; parameters: species or system Arabidopsis
Experimental: All binding assays were carried out at a final volume of 200 μL at 4° C. for 45 minutes. The mixture was then rapidly filtered through a nitrocellulose membrane, washed with 0.5× binding buffer, air dried and counted in a scintillation counter (Wallac 1414 WinSpectral v1.40). Heat denatured FCA protein was used to used determine the protein nature of the FCA and BSA was used as a control. […] […] Specific binding was calculated by taking the difference for assays with only ^3H^+-ABA (total binding) and assays that also contained 5 μM (±)-ABA added at the same time as ^3H^+-ABA (non-specific binding). Binding was represented as the number of moles of ^3H^+-ABA per mole of FCA protein.

FCA/FY interaction = test: GST pull-down of FCA/FY interaction in the presence of ABA; type: binding, Arabidopsis
Experimental: All in vitro translation and GST pull-down assays were carried out as described by supplier's protocols (Promega, Madison, Wis.) with modifications^S and as follows. For GST in vitro pull-down assays, 15 μL GST affinity resin was incubated with 250 μL FCA clear lysate, pelleted and the complex blocked and washed with IP buffer as described^S. For the determination of the amount of FCA bound to GST resin, the pellet was resuspended with 200 μL of 15 mM GSH to elute FCA and the supernatant was recovered by centrifugation. FY protein to be tested for interaction with the GST-FCA fusion protein was synthesized from a plasmid template and labeled with [^35S]-methionine using the T7 TNT coupled Transcription/Translation System (Promega). Twenty μL of FY labeled protein and 180 μL of interaction buffer (12.5 mM Tris-HCl, pH 7.3 containing 5 mM KCl, 1 mM MgCl2, and 100 mM NaCl) were used to resuspend the GST:FCA after the final wash. The protein binding/interaction reaction was carried out for 90 minutes at 4° C. with continuous gentle mixing. The newly formed complex was then washed three times with 500 μL of IP wash buffer. After the final wash, the complex was resuspended, first with 10 μL of 1 5 mM GSH to facilitate the dissociation of interacted proteins from GST resin and then 10 μL of 2×SDS-PAGE sample buffer was added to the mixture and boiled for 5 minutes for complete elution of the proteins from the agarose beads. The beads were pelleted by centrifugation and supernatant was loaded on a 12% SDS-PAGE gel. The gel was dried and exposed to Kodak X-ray film for 18 hours at −70° C. and film was developed for the detection of labelled proteins.
FCA was bound with […] for 30 minutes at which time the FCA/FY translated product was added to the incubation mixture. The interaction between FCA/FY was carried out in the presence of either (−)- or (+)-ABA in binding buffer as described above. Released proteins were separated on SDS-PAGE and labelled proteins were detected as described above. FCA-WW-FY was used as a control.

GST:FCA-WW-FY = test: ABA binding to and dissociation of pre-formed FCA-FY complex; parameters: species or system Arabidopsis
Experimental: The GST:FCA-WW-FY interaction mixture was incubated for 90 minutes before 1 μM ^3H^+-ABA was added and the mixture pelletted, washed, and the dual activity for [^35S]-met-FY and ^3H^+-ABA were counted as described above.

FCA protein = target: T1, FCA protein (Arabidopsis thaliana, UniProt O04425); test: ABA binding assay with purified recombinant FCA; parameters: other: in the absence of FY, at 15 min; other: in the absence of FY, at 45 min; fused on or other part: GST fused on; settings: in the absence of FY
T1 sequence (O04425 1-747 isoform O04425-1): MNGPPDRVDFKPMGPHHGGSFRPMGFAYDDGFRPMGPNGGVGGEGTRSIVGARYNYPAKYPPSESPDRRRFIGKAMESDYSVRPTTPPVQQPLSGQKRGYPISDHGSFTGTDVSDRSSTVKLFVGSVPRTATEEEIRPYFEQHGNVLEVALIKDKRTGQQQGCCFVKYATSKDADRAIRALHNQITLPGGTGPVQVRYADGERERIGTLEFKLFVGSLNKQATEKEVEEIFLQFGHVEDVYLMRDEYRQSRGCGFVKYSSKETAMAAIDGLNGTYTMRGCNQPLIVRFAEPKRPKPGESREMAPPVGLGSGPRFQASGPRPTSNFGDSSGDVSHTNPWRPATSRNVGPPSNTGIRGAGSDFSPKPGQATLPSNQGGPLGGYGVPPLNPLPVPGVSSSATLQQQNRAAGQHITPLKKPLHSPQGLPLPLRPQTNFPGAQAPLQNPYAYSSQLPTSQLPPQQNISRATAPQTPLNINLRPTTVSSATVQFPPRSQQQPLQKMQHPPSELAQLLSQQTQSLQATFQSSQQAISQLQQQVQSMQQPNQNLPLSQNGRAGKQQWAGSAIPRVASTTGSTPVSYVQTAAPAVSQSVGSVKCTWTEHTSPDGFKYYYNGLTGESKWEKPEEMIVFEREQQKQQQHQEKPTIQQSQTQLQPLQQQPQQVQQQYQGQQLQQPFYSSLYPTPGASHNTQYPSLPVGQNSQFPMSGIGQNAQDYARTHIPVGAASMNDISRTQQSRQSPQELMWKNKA
Experimental: […] The mixture was then rapidly filtered through a nitrocellulose membrane, washed with 0.5× binding buffer, air dried and counted in a scintillation counter (Wallac 1414 WinSpectral v1.40). Heat denatured FCA protein was used to used determine the protein nature of the FCA and BSA was used as a control. All binding studies were carried out using three different GST affinity chromatography protein purifications with triplicate assays for each purification. […] Specific binding was calculated by taking the difference for assays with only ^3H^+-ABA (total binding) and assays that also contained 5 μM (±)-ABA added at the same time as ^3H^+-ABA (non-specific binding). Binding was represented as the number of moles of ^3H^+-ABA per mole of FCA protein.

For abscisic acid [ABA], the “3H+-ABA binding” value (FCA-RRM) was “did not show any”, the “inhibition of FCA/FY interaction” value (FCA/FY interaction; FCA pre-bound with ABA for 30 min) was “significantly inhibited” and the FCA/FY interaction remaining (FCA/FY interaction; at 1 μM ABA) was “virtually no significant interaction”. For the same substance, the “disruption of FCA-FY complex (displacement of FY)” value (GST:FCA-WW-FY) was “capable of disrupting the FCA-FY complex”, the “ABA binding activity of pre-formed FCA-FY complex” value (GST:FCA-WW-FY; 1 μM 3H+-ABA added after 90 min FCA-FY incubation) was “initially low but significantly increased after 45 minutes” and the “saturation of FCA 3H-(+)-ABA binding activity” value (FCA protein; at 15 min) was “approximately 50%”. The “saturation of FCA 3H-(+)-ABA binding activity” value (FCA protein; at 45 min) was “approximately 95%”.
